In paper PMC9268013, “Design, Synthesis, and Biological Evaluation of N14-Amino Acid-Substituted Tetrandrine Derivatives as Potential Antitumor Agents against Human Colorectal Cancer” (Molecules, 2022):

How the values were obtained:
[1] = test system: human lung cancer cells (A549); assay: MTT antiproliferative assay, A549; format: cell-based
Experimental: (§1) Human lung cancer cell (A549,), human umbilical vein endothelial cells (HUVECs,), human colon cancer cell lines (HCT-15), human breast cancer cells (MCF-7), human liver cancer cells (HepG2), human pancreatic cancer cells (BxPC-3), and human hepatic cell line (L-02) were obtained from the Sichuan University. A549, HUVECs, and L-02 were cultured in DMEM medium (high glucose, HyClone, GE Healthcare, Sydney, Australia). Human colon cancer cell lines HCT-15, human pancreatic cancer cells […] BxPC-3 were cultured in RPMI-1640. Human breast cancer cells MCF-7 and human liver cancer cells HepG2 were cultured in MEM medium. All the mediums, including 10% fetal bovine serum (FBS, HyClone, GE Healthcare, Sydney, Australia) and 1% ampicillin/streptomycin, were used to culture the above cells at 37 °C in a humidified atmosphere (5% CO2 and 95% air).
(§2) The antiproliferative activity of the title compounds was determined using the MTT (3-(4,5-dimethylthiazol-2-yl)-2,5-diphenyltetrazolium bromide, Sigma-Aldrich, Saint Louis, MO, USA) assay on different cells. Cells lines were seeded into 96-well plates at a density of 2000 to 6000 cells/well. DMSO was used to dissolve the test compounds, and TET was used as a positive control. After 24 h, the test compounds were added at different concentrations (0.625, 1.25, 2.5, 5, 10, and 20 μM) and incubated at 37 °C for 72 h. MTT was added to each well at a final concentration of 0.5 mg/mL and incubated at 37 °C for 4 h. Then, 150 μL of DMSO was added to each well to dissolve the formazan crystals. The absorbance was measured at 570 nm by a microplate reader (ELX800UV, Bio-Tek, Windoski, VT, USA). All measurements were repeated at least three times under the same conditions. Graphpad Prism 8.0 was used to calculate the IC50 values.

[2] = test system: human breast cancer cells (MCF-7); assay: MTT antiproliferative assay, MCF-7; format: cell-based
Experimental: as §1, §2

[3] = test system: human umbilical vein endothelial cells (HUVEC); assay: MTT antiproliferative assay, HUVEC; format: cell-based; conditions: 72 h
Experimental: as §1, §2

HCT-15 cells [4] = assay: Colony formation assay; format: cell-based, human; conditions: HCT-15, 0.625 μM, 10 d
Experimental: HCT-15 cells were diluted in 2 mL of culture medium and plated in six-well plates at 37 °C in 5% CO2. After an overnight incubation, compound 16 (0.625, 1.25, 2.5, 5, and 10 μM) was added, and the cells were cultured for 10 d. Afterwards, the medium was replaced. The cells were washed by cold PBS and fixed with 4% paraformaldehyde. Finally, the cell colonies were stained with a 1% crystal violet solution for 20 min. The plates were recorded, and the colonies were counted digitally using ImageJ software with customized macros.

HCT-15 cells [5] = assay: Transwell invasion assay; format: cell-based, human; conditions: HCT-15, transwell, 5 and 10 μM, 20 h
Experimental: The cell motility inhibitory effect of 16 on HCT-15 cells was evaluated by invasion assay. Briefly, cells were harvested and resuspended in serum-free medium that contained 0.625, 1.25, 2.5, 5, and 10 μM of 16, and were seeded into the upper wells of a transwell chamber (Millicell, […] pore size, 12-mm diameter Millipore) coated with 50 μL of Matrigel (1:3 dilution in serum-free medium, Corning/BD Biosciences) at a density of 2 × 10^5 cells/mL. Meanwhile, 600 μL medium containing 10% FBS and corresponding samples were added into the lower chambers. Then, 20 h later, the invading cells were fixed with 4% paraformaldehyde and stained with 0.2% crystal violet for 30 min. Afterwards, the chambers were washed twice with PBS and left to dry. Cells which had migrated to the lower chamber of the transwell were photographed using a digital camera with an inverted microscope (Nikon ECLIPSE TE2000-U, Tokyo, Japan), and the crystal violet positive cells were counted.

HCT-15 cells [6] = assay: Live/dead FDA/PI double staining, HCT-15; format: cell-based; conditions: Homo sapiens, HCT-15, FDA/PI, 48 h, read-out: Viable cells retained
Experimental: HCT-15 or HUVEC cells were cultured in six-well plates for 24 h. The cells were washed with PBS and incubated with medium containing 0.625, 1.25, 2.5, 5, and 10 μM of 16 for 48 h. Afterwards, the medium was replaced, and the cells were washed twice with PBS, resuspended in the solution containing 100 μL FDA (0.02 mg/mL, Sigma, St. Louis, MO, USA) and 30 μL PI (0.02 mg/mL, Sigma, St. Louis, MO, USA), and treated in the dark at room temperature for 10 min. The cells were imaged with a fluorescence microscope (Nikon ECLIPSE TE2000-U, Tokyo, Japan).

HCT-15 cells [7] = assay: Flow cytometry Annexin V-FITC/PI apoptosis analysis; format: cell-based, human; conditions: 48 h
Experimental: HCT-15 cells were cultured in complete medium in six-well plates for 24 h, and […]. 2.5, 5 μM of 16 was added in triplicate for 48 h incubation. The cells were digested with trypsin without EDTA, washed twice with cold PBS, and resuspended in 500 μL binding buffer. The cell suspension was stained successively with 5 μL Annexin V-FITC and 5 μL PI (Keygen Biotech, Nanjing, China), and cultured for 15 min and 5 min in total dark, respectively. Afterwards, the percentages of apoptotic cells were determined by a flow cytometry. Data were analyzed by FlowJo software (Version 10, FlowJo, LLC, Ashland, OR, USA).

HUVECs = assay: Wound healing (migration) assay, HUVEC; format: cell-based, human; conditions: 10 μM, 24 h, control 85%
Experimental: HCT-15 cells or HUVECs were seeded in six-well culture plates and allowed to grow to 80–90% confluence. Subsequently, a cell-free line was manually created by scratching the confluent cell monolayers with a 200 μL sterile pipette tip, and the detached cells were washed with PBS. The cells were then incubated with 10% FBS and different concentrations of 16 (0.625, 1.25, 2.5, 5, and 10 μM). Then, 24 h later, images of the same location were obtained using a microscope (Nikon ECLIPSE TE2000-U, Tokyo, Japan). Each experiment was carried out at least three times.

With `COc1cc(NC(=O)[C@@H]2CCCN2)c2cc1Oc1ccc(cc1)C[C@H]1c3cc(c(OC)cc3CCN1C)Oc1c(OC)c(OC)cc3c1[C@H](C2)N(C)CC3` [Compound 16, 14-N-(L-proline)-tetrandrine] the IC50 ([1]; 72 h) was 1.19 ± 0.01 µM, the IC50 ([1]; Homo sapiens, A549, 72 h) was < 1.5 µM and the IC50 ([2]; 72 h) was 1.46 ± 0.13 µM. For the same compound, the IC50 ([2]; Homo sapiens, MCF7, 72 h) was < 1.5 µM, the IC50 [3] was 1.48 ± 0.01 µM and the Colony formation (HCT-15 cells [4]) was “very few colonies”. For the same compound, the Invaded cells (HCT-15 cells [5]) was “almost no cancer cells were observed”, the viability at 5 µM (HCT-15 cells [6]; 5 μM) was 18.3% and the viability at 10 µM (HCT-15 cells [6]; 10 μM) was 17.6%. The Apoptotic rate (HCT-15 cells [7]; HCT-15, 2.5 μM) was 25.4%, the Apoptotic rate (HCT-15 cells [7]; HCT-15, 5 μM) was 52.7% and the Necrotic rate (HCT-15 cells [7]; HCT-15, 5 μM) was 35.5%. For the same compound, the Migration rate (HUVECs) was 10.0%.
